Test results from US9029359B2, “Heteroaryl Btk inhibitors” (Biogen Idec MA, Inc., priority 2009, dated 2015).

Target: T1, BTK (Homo sapiens, UniProt Q06187)
T1 construct: purchased Upstate 14-552
Assay: In vitro BTK kinase assay: BTK-POLYGAT-LS ASSAY
Type: biochemical
Conditions: ATP 10 uM
How it was run: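 BTK phosphorylation of polyGAT (100 nM final) with ATP at 10 μM final, 10 mM Tris-HCl pH 7.5 kinase buffer, quenched by EDTA after 30 min. Potency given as IC50.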

T1 sequence (Q06187 whole entry): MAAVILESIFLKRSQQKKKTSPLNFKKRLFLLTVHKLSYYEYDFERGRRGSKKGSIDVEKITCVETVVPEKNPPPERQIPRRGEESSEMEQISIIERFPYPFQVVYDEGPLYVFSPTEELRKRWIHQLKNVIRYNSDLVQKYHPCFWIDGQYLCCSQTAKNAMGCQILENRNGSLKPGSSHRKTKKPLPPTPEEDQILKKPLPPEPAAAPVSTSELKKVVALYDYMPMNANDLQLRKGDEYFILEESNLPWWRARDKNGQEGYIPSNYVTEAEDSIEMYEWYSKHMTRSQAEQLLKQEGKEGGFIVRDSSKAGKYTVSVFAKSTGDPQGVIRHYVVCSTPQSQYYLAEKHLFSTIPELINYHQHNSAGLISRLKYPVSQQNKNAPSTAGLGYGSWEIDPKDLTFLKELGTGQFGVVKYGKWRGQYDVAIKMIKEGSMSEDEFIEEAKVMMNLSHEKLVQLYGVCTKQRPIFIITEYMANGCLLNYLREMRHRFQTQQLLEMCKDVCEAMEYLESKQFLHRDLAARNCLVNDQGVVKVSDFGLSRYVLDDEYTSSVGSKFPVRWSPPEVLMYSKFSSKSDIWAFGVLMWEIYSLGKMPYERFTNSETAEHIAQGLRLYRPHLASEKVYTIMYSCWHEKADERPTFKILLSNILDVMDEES

| Structure (SMILES) | IC50 [µM] |
| --- | --- |
| Cc1cccc(NC(C(=O)NC2CCCN(c3ncnc4[nH]ccc34)C2)C2CCCC2)c1 (stereo not shown) [Example 461] | 1 to 10 |
| O=C(CNc1ccccc1)NC1CCCN(c2ncnc3[nH]cc(Cl)c23)C1 (stereo not shown) [Example 462] | > 10 |
| N#Cc1c(N)ncnc1N1CCCC(NC(=O)CNc2ccccc2)C1 (stereo not shown) [Example 463] | > 10 |
| O=C(CNc1ccccc1)NC1CCCN(c2ncnc3[nH]cnc23)C1 (stereo not shown) [Example 464] | > 10 |
